Source: patent US20230285372A1, “Pharmaceutical use of (E)-3-arylheterocyclylprop-2-enoic acid derivatives” (MEDCURIUS INC., priority 2020, published 2023)

Tests used:
Nrf2 = Nrf2 protein level in the nucleus of HT-22 cells, Western Blot; type: cell-based, mouse; conditions: 1.25 μM and 0.625 μM, 24 hours, vs control group
Source text: As a transcription factor, Nrf2 needs to enter the nucleus and combine with ARE sequence to play a role in transcriptional activation. Therefore, Nrf2 protein level in the nucleus is an important prerequisite for the activation of Nrf2 signaling pathway. NQO-1 and HO-1 are target genes regulated by Nrf2, and the increase of their protein levels is an important sign of activation of the Nrf2 signaling pathway.
HT-22 cells in logarithmic growth phase were selected, the culture medium was discarded, the cells were digested with 0.25% Trypsin containing EDTA, and cell suspension was made. Cell density was adjusted to 50000/ml with DMEM/F12 medium (containing 10% FBS and 1% double antibody) and it was inoculated to 6-well plate, with 2000 μL/well, the number of cells per well was 100, 000, and the cells were cultured in a cell incubator at 37° C. in an atmosphere containing 5% CO2 for 24 hours. Then, the medium of each well was replaced with new 1980 μL DMEM/F12 medium. […] After 24 hours, the cells were collected, nuclear protein and cytoplasmic protein were extracted, and the level of Nrf2 in the nucleus and the expression of NQO-1 and HO-1 in cytoplasm were detected by Western Blot.

α-synuclein protein = α-synuclein protein level in midbrain, Western blot, MPTP mouse; type: in vivo; conditions: high dosage treatment group of I-5; vs model group, p<0.05
Source text: (§1) The core pathological change of Parkinson's disease is the loss of dopaminergic neurons. Tyrosine hydroxylase (TH), the rate-limiting enzyme in dopamine synthesis, is the landmark protein of the dopaminergic neurons. Therefore, the decrease in its level indicates the loss of the dopaminergic neurons. A key protein for the occurrence and development of Parkinson's disease is α-synuclein protein, and the abnormal modification (hyperphosphorylation) of this protein can inhibit microtubule polymerization, enhance oxidative stress, and thus accelerate the death of the dopaminergic neurons.
Male C57 mouse were screened for their motor function by a mouse rod-rotating test, and unqualified ones were excluded from the test. […] MPTP was injected subcutaneously every 4 days in the model group and the drug administration group with a dosage of 25 mg/kg for 40 consecutive days. Each group of I-5 was administered once a day at 8:00 am and 8:00 pm (by intragastric administration), twice in total. […]
Tissues from all the animals were collected on the second day after the end of the behavioral experiment. […] The level of tyrosine hydroxylase (TH), a marker protein of dopaminergic neurons, was detected by immumohistochemistry, and α-synuclein protein level and phosphorylation level of the protein were detected by Western blot.

p-synuclein = assay: Phosphorylated α-synuclein (p-synuclein) level in midbrain, Western blot, MPTP mouse; type: in vivo; conditions: vs model group
Source text: as §1
Male C57 mouse were screened for their motor function by a mouse rod-rotating test, and unqualified ones were excluded from the test. […] MPTP was injected subcutaneously every 4 days in the model group and the drug administration group with a dosage of 25 mg/kg for 40 consecutive days. Each group of I-5 was administered once a day at 8:00 am and 8:00 pm (by intragastric administration), twice in total. […] The intragastric volume was 0.1 ml/10 g body weight, and the behavior test was started 40 days later. […] The storage time of the prepared liquid medicine was not more than 24 hours.
Tissues from all the animals were collected on the second day after the end of the behavioral experiment. Hearts from six animals in each group were perfused and fixed with paraformaldehyde for pathological analysis of paraffin sections. Brain tissue of the remaining animals was separated on ice, and brain areas (midbrain) related to Parkinson's disease were collected. After being frozen with liquid nitrogen, they were stored in a refrigerator at −80° C. for protein analysis. The level of tyrosine hydroxylase (TH), a marker protein of dopaminergic neurons, was detected by immumohistochemistry, and α-synuclein protein level and phosphorylation level of the protein were detected by Western blot.

N#C/C=C/c1ccccn1 [Compound I-5]
protein level of Nrf2 in the nucleus (Nrf2): significantly higher than that of the control group | α-synuclein protein level in the midbrain (α-synuclein protein): significantly higher than that of the model group | p-synuclein protein level in the midbrain (p-synuclein; I-5 10 mg/kg, p<0.01): significantly lower than that in the model group | p-synuclein protein level in the midbrain (p-synuclein; I-5 20 mg/kg, p<0.05): significantly lower than that in the model group
